The text below walks through data of ChEMBL document CHEMBL1201862, “PubChem BioAssay data set” (2004).

Among the test systems are 786-0; CCRF-CEM; COLO 205; EKVX; HCT-15; HT-29; Hs-578T; K562; KM12; MDA-MB-435; MOLT-4; NCI-H226; NCI-H23; NCI-H522; OVCAR-5; SK-MEL-28; SK-OV-3; SNB-75.
Holding throughout (test): DTP human tumour cell line panel, 48 h

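Values below derive from 48-hour exposures of cells grown in 96-well plates, with endpoints linearly interpolated between the two concentrations bracketing the appropriate inhibition level. GI50: concentration for 50% inhibition of growth.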 Activity calls are given as the source filed them. Rule as the data show it: active = GI50 up to about 1.1 µM and inactive = higher. Some results are limits rather than exact numbers.

Regarding `CCOC(=O)c1ccc(Nc2nc3ccc(C(F)(F)F)cc3nc2C(=O)OCC)cc1`, the GI50 in the assay with 786-0 was > 100 µM (inactive); in the assay on CCRF-CEM, > 100 µM (inactive); in the assay with COLO 205, > 100 µM (inactive); with EKVX, > 100 µM (inactive); in the assay with HCT-15 it was > 100 µM; in the assay on HT-29 it was > 100 µM (inactive). For the same compound, the GI50 in the assay with Hs-578T was 32.9 µM (inactive); in the assay on K562 it was > 100 µM (inactive); in the assay on KM12, > 100 µM (inactive); with MDA-MB-435, > 100 µM (inactive); with MOLT-4 it was > 100 µM (inactive); in the assay with NCI-H226, > 100 µM (inactive). Also, the GI50 is > 100 µM (inactive) in the assay with NCI-H23; > 100 µM (inactive) in the assay with NCI-H522; > 100 µM (inactive) with OVCAR-5; > 100 µM (inactive) with SK-MEL-28; > 100 µM (inactive) in the assay on SK-OV-3; 95.3 µM (inactive) in the assay on SNB-75.

Take `CCOC(=O)C1(C#N)OC(=O)c2cnccc21` (stereo not drawn): the GI50 in the assay with 786-0 was > 100 µM (inactive); with CCRF-CEM, > 100 µM (inactive); in the assay with COLO 205, > 100 µM (inactive); in the assay on EKVX it was > 100 µM (inactive); in the assay on HCT-15, > 100 µM; in the assay with HT-29 it was > 100 µM (inactive). Moreover, the GI50 with Hs-578T, with K562, in the assay on KM12, in the assay with MDA-MB-435, in the assay with MOLT-4 and with NCI-H226 was > 100 µM (inactive) throughout. In addition, the GI50 in the assay on NCI-H23, in the assay with NCI-H522, in the assay on OVCAR-5, in the assay with SK-MEL-28, with SK-OV-3 and in the assay with SNB-75 was > 100 µM (inactive) in each case.

Regarding `O=S(=O)(O)c1ccccc1/N=N\c1ccc(/N=N/c2c(O)ccc3ccccc23)c(S(=O)(=O)O)c1`, the GI50 in the assay with 786-0 is > 100 µM (inactive); in the assay on CCRF-CEM it was 83.6 µM (inactive); in the assay on COLO 205 it was > 100 µM (inactive); in the assay on EKVX, > 100 µM (inactive); with HCT-15, > 100 µM; in the assay on HT-29 it was > 100 µM (inactive). The GI50 in the assay with Hs-578T, in the assay on K562, with KM12, in the assay on MDA-MB-435, in the assay on MOLT-4 and in the assay on NCI-H226 was > 100 µM (inactive) each time. The GI50 in the assay on NCI-H23, in the assay on NCI-H522, with OVCAR-5, with SK-MEL-28, with SK-OV-3 and in the assay on SNB-75 was > 100 µM (inactive) in each case.

Turning to `CC(=O)O[C@H]1C#C/C=C\C#CC[C@@H]2C(=O)N(C(=O)OC(C)(C)C)[C@@H]12`, the GI50 in the assay with 786-0 is 9.93 µM (inactive); with CCRF-CEM it was 1.52 µM (inactive); in the assay with COLO 205, 22.2 µM (inactive); in the assay on EKVX, 85.7 µM (inactive); with HCT-15, 13.6 µM; in the assay on HT-29, 36.1 µM (inactive). The GI50 in the assay on Hs-578T is 39.6 µM (inactive); in the assay on K562, 25.7 µM (inactive); in the assay on KM12, 53.7 µM (inactive); with MDA-MB-435, 71.6 µM (inactive); with MOLT-4 it was 0.199 µM (active); with NCI-H226 it was 24.3 µM (inactive). The GI50 in the assay with NCI-H23 is 12.6 µM (inactive); in the assay on NCI-H522, 12.8 µM (inactive); in the assay on OVCAR-5, > 100 µM (inactive); with SK-MEL-28 it was 71.4 µM (inactive); in the assay with SK-OV-3, 62.4 µM (inactive); with SNB-75, 21.5 µM (inactive).

Turning to `Cc1ccc([N+](=O)[O-])cc1NC1=NCCO1`, the GI50 in the assay with 786-0 was > 100 µM (inactive); with CCRF-CEM, > 100 µM (inactive); in the assay with COLO 205 it was > 100 µM (inactive); in the assay with EKVX it was > 100 µM (inactive); in the assay with HCT-15, > 100 µM; in the assay with HT-29, > 100 µM (inactive). In addition, the GI50 in the assay on Hs-578T, with K562, in the assay with KM12, in the assay on MDA-MB-435, in the assay on MOLT-4 and in the assay with NCI-H226 was > 100 µM (inactive) in each case. Also, the GI50 with NCI-H23, in the assay with NCI-H522, in the assay with OVCAR-5, in the assay with SK-MEL-28, with SK-OV-3 and in the assay on SNB-75 was > 100 µM (inactive) each time.

In the case of `CC(=O)N(CCc1ccccc1)C(C)(C#N)c1ccccc1` (stereo not drawn), the GI50 was > 100 µM (inactive) with 786-0; > 100 µM (inactive) in the assay on CCRF-CEM; > 100 µM (inactive) in the assay on COLO 205; > 100 µM (inactive) with EKVX; > 100 µM with HCT-15; > 100 µM (inactive) in the assay on HT-29. Besides, the GI50 with Hs-578T, in the assay on K562, in the assay with KM12, in the assay on MDA-MB-435, in the assay with MOLT-4 and in the assay with NCI-H226 was > 100 µM (inactive) throughout. For the same compound, the GI50 in the assay with NCI-H23, with NCI-H522, with OVCAR-5, in the assay on SK-MEL-28, with SK-OV-3 and in the assay with SNB-75 was > 100 µM (inactive) throughout.

Take `Cn1c2ccc(F)cc2c2ccc3c(c21)C(=O)C=CC3=O`: the GI50 in the assay with 786-0 was 3.41 µM (inactive); in the assay with CCRF-CEM, 0.544 µM (active); in the assay on COLO 205, 7.08 µM (inactive); in the assay on EKVX, 16 µM (inactive); with HCT-15, 13.7 µM; in the assay on HT-29, 19.5 µM (inactive). Besides, the GI50 in the assay with Hs-578T was 29.9 µM (inactive); in the assay with K562, 1.63 µM (inactive); with KM12, 31.5 µM (inactive); with MDA-MB-435 it was 16.4 µM (inactive); in the assay with MOLT-4, 0.9 µM (active); in the assay with NCI-H226, 20.3 µM (inactive). Besides, the GI50 is 13.8 µM (inactive) in the assay on NCI-H23; 2.15 µM (inactive) in the assay on NCI-H522; 43.6 µM (inactive) in the assay on OVCAR-5; 13.8 µM (inactive) with SK-MEL-28; 61 µM (inactive) in the assay on SK-OV-3; 33.3 µM (inactive) with SNB-75.

With `COc1c(Cl)ccc(Cl)c1-c1nnc(-c2c(Cl)c(Cl)c(Cl)c(Cl)c2-c2nc3cc(C(=O)c4ccccc4)ccc3[nH]2)o1`, the GI50 in the assay on 786-0 was 73.6 µM (inactive); with CCRF-CEM, 24.9 µM (inactive); in the assay with COLO 205, 21.9 µM (inactive); in the assay with EKVX, 45.4 µM (inactive); in the assay on HCT-15 it was 35.7 µM; with HT-29, 57.8 µM (inactive). The GI50 is 42.2 µM (inactive) in the assay on Hs-578T; 28.9 µM (inactive) in the assay with K562; 45.5 µM (inactive) in the assay with KM12; 21.4 µM (inactive) in the assay on MDA-MB-435; 26.4 µM (inactive) in the assay on MOLT-4; 26.5 µM (inactive) in the assay on NCI-H226. Moreover, the GI50 in the assay on NCI-H23 is 78.2 µM (inactive); in the assay on NCI-H522, 22.9 µM (inactive); in the assay on OVCAR-5, > 100 µM (inactive); with SK-MEL-28, 47.2 µM (inactive); in the assay with SK-OV-3, > 100 µM (inactive); with SNB-75, 33.5 µM (inactive).

`C[C@H](CCC(=O)NCC(=O)O)[C@H]1CC[C@H]2[C@@H]3[C@H](O)C[C@@H]4C[C@H](O)CC[C@]4(C)[C@H]3CC[C@]12C`: the GI50 with 786-0 is > 100 µM (inactive); in the assay with CCRF-CEM, > 100 µM (inactive); in the assay with COLO 205, > 100 µM (inactive); in the assay with EKVX it was > 100 µM (inactive); in the assay on HCT-15 it was > 100 µM; with HT-29 it was > 100 µM (inactive). The GI50 with Hs-578T, in the assay with K562, in the assay with KM12, in the assay with MDA-MB-435, in the assay on MOLT-4 and with NCI-H226 was > 100 µM (inactive) each time. The GI50 was > 100 µM (inactive) in the assay with NCI-H23; > 100 µM (inactive) in the assay with NCI-H522; > 100 µM (inactive) in the assay on OVCAR-5; > 100 µM (inactive) in the assay on SK-MEL-28; > 100 µM (inactive) in the assay with SK-OV-3; 0.75 µM (active) with SNB-75.

Take `COC12c3ccccc3-c3ccccc3C1[C@H]1C(=O)OC(=O)[C@H]12` (stereo partly drawn): the GI50 in the assay with 786-0 was > 10 µM (inactive); in the assay on CCRF-CEM it was > 10 µM (inactive); with COLO 205, > 10 µM (inactive); in the assay with EKVX it was > 10 µM (inactive); in the assay on HCT-15 it was > 10 µM; in the assay with HT-29, > 10 µM (inactive). The GI50 in the assay on Hs-578T, with K562, in the assay on KM12, with MDA-MB-435, in the assay with MOLT-4 and in the assay on NCI-H226 was > 10 µM (inactive) each time. For the same compound, the GI50 in the assay with NCI-H23, in the assay on NCI-H522, with OVCAR-5, in the assay with SK-MEL-28, in the assay with SK-OV-3 and in the assay with SNB-75 was > 10 µM (inactive) throughout.

As to `CC(=O)OC1CC2CC(=O)CC1N2C` (stereo not drawn), the GI50 with 786-0 was > 100 µM (inactive); in the assay with CCRF-CEM, > 100 µM (inactive); with COLO 205, > 100 µM (inactive); with EKVX, > 100 µM (inactive); in the assay on HCT-15 it was > 100 µM; in the assay on HT-29, > 100 µM (inactive). Moreover, the GI50 with Hs-578T, with K562, in the assay with KM12, in the assay on MDA-MB-435, in the assay with MOLT-4 and in the assay on NCI-H226 was > 100 µM (inactive) each time. For the same compound, the GI50 with NCI-H23, in the assay with NCI-H522, in the assay with OVCAR-5, with SK-MEL-28, in the assay with SK-OV-3 and in the assay on SNB-75 was > 100 µM (inactive) throughout.

What is called GI50 is the concentration at which growth is held to half of that of the control.
